Here are results for 41 compounds from patent publication US8883789B2, “Piperazine derivatives and their use as positive allosteric modulators of mGluR5 receptors” (Boehringer Ingelheim International GmbH, priority 2011, dated 2014).

This experiment deals with T1, human recombinant mGluR5 (Homo sapiens, UniProt P41594).
T1 construct: expressed in transfected cells; hygromycin and geneticin selection
T1 sequence (P41594 21-1212): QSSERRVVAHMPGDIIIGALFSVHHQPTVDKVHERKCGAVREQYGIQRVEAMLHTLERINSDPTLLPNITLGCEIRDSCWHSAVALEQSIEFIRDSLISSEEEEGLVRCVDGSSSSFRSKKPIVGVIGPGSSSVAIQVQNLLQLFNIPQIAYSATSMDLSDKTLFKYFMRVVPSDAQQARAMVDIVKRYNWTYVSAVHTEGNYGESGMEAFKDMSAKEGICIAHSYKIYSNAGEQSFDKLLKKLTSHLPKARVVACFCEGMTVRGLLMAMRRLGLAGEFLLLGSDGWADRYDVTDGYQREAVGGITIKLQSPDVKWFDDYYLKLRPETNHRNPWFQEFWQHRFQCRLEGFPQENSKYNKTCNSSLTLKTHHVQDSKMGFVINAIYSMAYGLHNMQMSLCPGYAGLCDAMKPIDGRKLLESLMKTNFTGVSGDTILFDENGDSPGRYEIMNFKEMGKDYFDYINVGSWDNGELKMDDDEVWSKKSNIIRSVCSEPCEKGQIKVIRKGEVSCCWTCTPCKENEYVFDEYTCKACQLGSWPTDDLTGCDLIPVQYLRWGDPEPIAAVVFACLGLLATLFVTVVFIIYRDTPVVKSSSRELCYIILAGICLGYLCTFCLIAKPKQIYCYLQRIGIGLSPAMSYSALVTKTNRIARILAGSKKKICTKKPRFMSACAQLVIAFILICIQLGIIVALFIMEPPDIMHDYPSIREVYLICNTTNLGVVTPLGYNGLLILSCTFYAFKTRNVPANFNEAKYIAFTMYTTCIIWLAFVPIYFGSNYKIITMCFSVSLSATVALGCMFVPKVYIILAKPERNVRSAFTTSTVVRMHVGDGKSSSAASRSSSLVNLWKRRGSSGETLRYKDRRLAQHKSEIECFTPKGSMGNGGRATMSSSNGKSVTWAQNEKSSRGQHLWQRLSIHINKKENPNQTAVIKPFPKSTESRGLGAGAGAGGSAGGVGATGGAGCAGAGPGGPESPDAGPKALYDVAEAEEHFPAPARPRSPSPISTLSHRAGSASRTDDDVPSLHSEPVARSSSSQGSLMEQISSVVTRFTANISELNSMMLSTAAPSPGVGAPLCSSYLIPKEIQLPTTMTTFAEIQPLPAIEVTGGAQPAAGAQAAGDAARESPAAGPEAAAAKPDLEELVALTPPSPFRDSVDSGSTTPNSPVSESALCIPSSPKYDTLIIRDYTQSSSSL
Briefly: positive modulation of mGluR5, calcium based FLIPR assay. Particulars: HEK 293 cell line expressing human recombinant mGluR5; Ca2+ peak height after glutamate at approximately 5% basal stimulation; nonlinear regression. The procedure:
The positive modulation of mGluR5 is measured in a HEK 293 cell line expressing human recombinant mGluR5 and is detected with calcium based FLIPR assay. The cells are cultured with DMEM supplemented with 10% FCS, 2 μg/mL tetracycline, 100 μg/mL hygromycin and 500 μg/mL geneticin. The cell culture media is exchanged for tetracycline-free cell culture media 3-7 days before the assay. One day before the assay the cell culture medium is exchanged to DMEM without glutamine and phenol red and supplemented with 10% FCS, 100 μg/mL hygromycin and 500 μg/mL geneticin. On the assay day, the medium of the subconfluent cultures is removed and the cells are detached by addition of 2.5 ml EDTA (0.02%) per 175 cm2 culture flask for 1 minute. The cells are resuspend in Ringer solution (140 mM NaCl, 5 mM KCl, 2.5 mM CaCl2, 1.5 mM MgCl2, 5 mM Glucose, 10 mM Hepes; adjusted to pH 7.4 with NaOH), pooled and Ringer solution added to adjust the volume to 50 mL. The cell suspension is centrifuged for […] at 1500 U/min (425 g). The supernatant is removed and the cells washed a second time with 50 ml fresh Ringer solution and centrifuged again as before. The supernatant is again removed and the pellet resuspended in Ringer solution to 1,000,000 cells/ml (1×10^6 cells/mL). The cells are plated onto BD BioCoat Poly-D-Lysine 384 well plates (20.000 cells/well; 20 μl/well). The lid covered plates are then incubated until use at 37° C./10% CO2. For dye loading, 20 μl of Calcium-4 assay kit solution (prepared according to the manufacturer's description in Ringer solution) are added to the cells and the plates are incubated for 80 min 37° C. and then 10 min at room temperature.
Controls, Compound Dilution and Assay Execution:
Each assay plate contained wells with “high” and “low” controls:
Low controls 1% DMSO/ringer solution+basal glutamate activation (defined as 100% CTL).
High controls 10 μM CDPPB+basal glutamate activation (defined as 200% CTL).
Test compounds are dissolved and diluted in DMSO to 100-fold the desired concentrations. In a second step, the compounds are diluted in Ringer solution such that the compounds are 4-fold more concentrated than the desired final assay concentration. The final DMSO concentration was 1%.
20 μl of each compound solution are then transferred to the assay plate and the Ca2+ kinetic is measured to determine any intrinsic compound activity. After 5 min incubation in the FLIPR device, the second stimulation with 20 μl of glutamate in Ringer solution (glutamate concentration adjusted to approximately 5% basal stimulation of the maximal possible glutamate effect) is added and the kinetic Ca2+ response of the wells was measured for the modulation effect.
The peak height of the Ca release related fluorescence signal (9-66) is used for the EC50.
The EC50 of the modulation is calculated over a nonlinear regression with GraphPad Prism (Table 1).
On to `COc1nc(C(=O)N2CCN(C(=O)c3ncn(-c4ccccc4)n3)C(C)(C)C2)cc2cc(F)c(F)cc12` [Example 148], for which the EC50 (commonly the concentration giving half of the maximal effect) worked out at 113 nM. Next, `COc1cc(C(=O)N2CCN(C(=O)c3ncn(-c4ccccc4)n3)C(C)C2)ccc1C` (centres unmarked) [Example 292]: 1210 nM; `CCCOc1nc(C(=O)N2CCN(C(=O)c3ncn(-c4ccccc4)n3)C(C)(C)C2)cc2ccccc12` [Example 99]: 28 nM.

For `CC1CN(C(=O)c2cccc(-c3ccn(C)n3)c2)CCN1C(=O)c1ncn(-c2cccc(Cl)c2)n1` (centres unmarked) [Example 269], the EC50 was 447 nM. With `CC1CN(C(=O)c2cccc(-c3nccs3)c2)CCN1C(=O)c1ncn(-c2cccc(Cl)c2)n1` (centres unmarked) [Example 270], the EC50 came to 677 nM. As for `Cc1c(C(=O)N2CCN(C(=O)c3ncn(-c4cccc(Cl)c4)n3)CC2C)oc2ccccc12` (centres unmarked) [Example 228], the EC50 came out at 404 nM. On to `COc1ccc2oc(C)c(C(=O)N3CCN(C(=O)c4ncn(-c5cccc(C)c5)n4)CC3C)c2c1` (centres unmarked) [Example 237], for which the EC50 was determined as 174 nM.

As to `COc1nc(C(=O)N2CCN(C(=O)c3nnn(-c4cccc(F)c4)n3)C(C)(C)C2)cc2ccccc12` [Example 207, [2-(3-Fluoro-phenyl)-2H-tetrazol-5-yl]-[4-(1-methoxy-isoquinoline-3-carbonyl)-2,2-dimethyl-piperazin-1-yl]-methanone], the concentration giving a half-maximal response (EC50) is 34 nM. Turning to `CC1(C)CN(C(=O)c2cc(Cl)cc(Cl)c2)CCN1C(=O)c1ncn(-c2ccccc2)n1` [Example 153], the EC50 stood at 101 nM. `CC1(C)CN(C(=O)c2cc(Cl)c3c(c2)OCCO3)CCN1C(=O)c1ncn(-c2cccc(Cl)c2)n1` [Example 19]: the EC50 worked out at 51 nM. For the compound `Cc1cccc(-n2cnc(C(=O)N3CCN(C(=O)c4cc(Br)c(Br)o4)[C@@H](C)C3)n2)c1` [Example 255, (S)-[4-(4,5-Dibromo-furan-2-carbonyl)-3-methyl-piperazin-1-yl]-(1-m-tolyl-1H-[1,2,4]triazol-3-yl)-methanone], the EC50 was determined as 152 nM. Next, `Cc1noc(C)c1-c1cccc(C(=O)N2CCN(C(=O)c3ncn(-c4cccc(Cl)c4)n3)C(C)(C)C2)n1` [Example 90, [1-(3-Chloro-phenyl)-1H-[1,2,4]triazol-3-yl]-{4-[6-(3,5-dimethyl-isoxazol-4-yl)-pyridine-2-carbonyl]-2,2-dimethyl-piperazin-1-yl]-methanone]: 38 nM; `CC1(C)CN(C(=O)c2cccc(Cl)c2)CCN1C(=O)c1ncn(-c2ccccc2)n1` [Example 186, [4-(3-Chloro-benzoyl)-2,2-dimethyl-piperazin-1-yl]-(1-phenyl-1H-[1,2,4]-triazol-3-yl)-methanone]: 39 nM; `CC1(C)CN(C(=O)c2noc(-c3ccccc3)n2)CCN1C(=O)c1ncn(-c2ccccc2)n1` [Example 139]: 314 nM. Next, `CC1CN(C(=O)c2ncn(-c3cccc(Cl)c3)n2)CCN1C(=O)c1sc2ccccc2c1Cl` (centres unmarked) [Example 226]: 600 nM. Next, `COc1cccc(C(=O)N2CCN(C(=O)c3ncn(-c4cccc(Cl)c4)n3)C[C@@H]2C)n1` [Example 252, (S)-{4-[1-(3-Chloro-phenyl)-1H-[1,2,4]triazole-3-carbonyl]-2-methyl-piperazin-1-yl}-(6-methoxy-pyridin-2-yl)-methanone]: 278 nM; `CCCOc1nc(C(=O)N2CCN(C(=O)c3ncn(-c4cccc(Cl)c4)n3)C(C)(C)C2)cc2ccccc12` [Example 87]: 105 nM; `COc1ccc(C(=O)N2CCN(C(=O)c3ncn(-c4cccc(Cl)c4)n3)C(C)(C)C2)nc1OC` [Example 79]: 230 nM. For the compound `COc1cccc(C(=O)N2CCN(C(=O)c3ncn(-c4cccc(C)c4)n3)C(C)(C)C2)n1` [Example 7, [4-(6-Methoxy-pyridine-2-carbonyl)-2,2-dimethyl-piperazin-1-yl]-[1-m-tolyl-1H-[1,2,4]triazol-3yl]-methanone], the EC50 amounted to 50 nM. For `Cc1c(C(=O)N2CCN(C(=O)c3ncn(-c4ccccc4)n3)C(C)(C)C2)oc2ccc(F)cc12` [Example 108], the 50% effective concentration (EC50) was 112 nM.

Consider `COc1ccc2oc(C)c(C(=O)N3CCN(C(=O)c4ncn(-c5ccccc5)n4)C(C)C3)c2c1` (centres unmarked) [Example 291], for which the EC50 was 47 nM. Next, `Cc1c(C(=O)N2CCN(C(=O)c3ncn(-c4cccc(Cl)c4)n3)C(C)(C)C2)oc2c(C)cccc12` [Example 66]: 104 nM.

As to `CCc1ccc(C(=O)N2CCN(C(=O)c3ncn(-c4cccc(Cl)c4)n3)C(C)(C)C2)cc1` [Example 81], the EC50 amounted to 155 nM. Under `CCCc1nc2cc(C(=O)N3CCN(C(=O)c4ncn(-c5ccccc5)n4)C(C)(C)C3)cc(C)c2[nH]1` [Example 146] stands 2170 nM. `COCc1c(C(=O)N2CCN(C(=O)c3ncn(-c4cccc(Cl)c4)n3)CC2C)oc2ccccc12` (centres unmarked) [Example 217]: the concentration giving a half-maximal response (EC50) came out at 1540 nM. `C#CCOc1cccc(C(=O)N2CCN(C(=O)c3ncn(-c4cccc(Cl)c4)n3)C(C)(C)C2)c1` [Example 72]: the EC50 worked out at 64 nM. For `COc1cccc(C(=O)N2CCN(C(=O)c3ncn(-c4cc(F)ccc4F)n3)C(C)(C)C2)n1` [Example 197, [1-(2,5-Difluoro-phenyl)-1H-[1,2,4]triazol-3-yl]-[4-(6-methoxy-pyridine-2-carbonyl)-2,2-dimethyl-piperazin-1-yl]-methanone], the EC50 is 149 nM. Under `CC1(C)CN(C(=O)c2cccc(Cl)c2)CCN1C(=O)c1ncn(-c2cc(F)ccc2F)n1` [Example 195] stands 1000 nM; under `COc1cc(C(=O)N2CCN(C(=O)c3ncn(-c4cccc(F)c4)n3)CC2C)ccc1C` (centres unmarked) [Example 233], 476 nM. With `COc1cccc(C(=O)N2CCN(C(=O)c3nnn(-c4cccc(Cl)c4)n3)C(C)(C)C2)n1` [Example 199], the EC50 turned out to be 69 nM. Next, `COc1cccc(C(=O)N2CCN(C(=O)c3ncn(-c4cccc(C)c4)n3)CC2C)n1` (centres unmarked) [Example 244]: 216 nM; `O=C(c1cccc(Cl)c1)N1CCN(C(=O)c2ncn(-c3cccc(Cl)c3)n2)C2(CCCC2)C1` [Example 308]: 367 nM.

In the case of `COc1cccc2c(C)c(C(=O)N3CCN(C(=O)c4ncn(-c5cccc(Cl)c5)n4)C(C)(C)C3)oc12` [Example 68], the EC50 came out at 54 nM.

For `CC1(C)CN(C(=O)c2cc(Cl)ccc2F)CCN1C(=O)c1ncn(-c2cccc(Cl)c2)n1` [Example 73], the concentration for a half-maximal effect (EC50) turned out to be 162 nM.

In the case of `CC1(C)CN(C(=O)c2cccc(C3CC3)n2)CCN1C(=O)c1ncn(-c2cccc(Cl)c2)n1` [Example 16], the EC50 stood at 41 nM. In the case of `COc1cccc(C(=O)N2CCN(C(=O)c3ncn(-c4ccccc4)n3)C(C)(C)C2)n1` [Example 109], the EC50 amounted to 128 nM. Next, `COCC1(C)CN(C(=O)c2cccc(OC)n2)CCN1C(=O)c1ncn(-c2cccc(Cl)c2)n1` (centres unmarked) [Example 311]: 577 nM; `CC1CN(C(=O)c2ncn(-c3cccc(Cl)c3)n2)CCN1C(=O)c1cc2ccccc2o1` (centres unmarked) [Example 214]: 428 nM; `COc1nc(C(=O)N2CCN(C(=O)c3ncn(-c4ccc(C)c(F)c4)n3)C(C)(C)C2)cc2ccccc12` [Example 158]: 441 nM.

Turning to `Cc1cccc(-n2nnc(C(=O)N3CCN(C(=O)c4cccc(Cl)c4)CC3(C)C)n2)c1` [Example 189], the EC50 stood at 36 nM. Under `Cc1cccc(-n2cnc(C(=O)N3CCN(C(=O)c4cc(Cl)c5c(c4)OCCO5)CC3(C)C)n2)c1` [Example 9] stands 53 nM.
